Publication doi:10.1101/2023.10.01.560353v1 (bioRxiv, 2023)
In brackets after ≈: the same amount, converted by molar mass. Peptide text beside a SMILES is read from it.

Test system: 11 clinically relevant bacterial pathogens
Assay: MIC over the panel of pathogens
Type: cell-based
Details: Table S17; lowest MIC over the strains tested

Going from `CC[C@H](C)[C@H](N)C(=O)N[C@H](C(=O)NCC(=O)N[C@@H](CC(N)=O)C(=O)N[C@H](C(=O)N[C@@H](Cc1ccccc1)C(=O)NCC(=O)N[C@@H](Cc1ccccc1)C(=O)N[C@@H](CCCCN)C(=O)N[C@@H](C)C(=O)N[C@@H](CC(C)C)C(=O)N[C@@H](CCCNC(=N)N)C(=O)N[C@@H](C)C(=O)N[C@@H](CC(C)C)C(=O)N[C@@H](CCCNC(=N)N)C(=O)N[C@@H](CC(C)C)C(=O)O)C(C)C)C(C)C` [Hesperelin-4] (H-IVGNVFGFKALRALRL-OH) to `CC[C@H](C)[C@H](NC(=O)[C@H](CC(C)C)NC(=O)[C@@H](NC(=O)[C@H](CCCCN)NC(=O)[C@H](Cc1c[nH]c2ccccc12)NC(=O)[C@@H](NC(=O)[C@H](CCCCN)NC(=O)[C@H](CC(=O)O)NC(=O)[C@@H](NC(=O)[C@H](CC(C)C)NC(=O)[C@H](Cc1ccccc1)NC(=O)[C@H](C)NC(=O)CNC(=O)[C@@H](NC(=O)[C@@H](N)CCCCN)C(C)C)C(C)C)C(C)C)[C@@H](C)O)C(=O)O` [Anomalopterin-2] (H-KVGAFLVDKVWKTLI-OH), the “MIC (lowest MIC value obtained in the antimicrobial activity assays)” value (“MIC” below) falls from 64000 mM (≈ 114000 mg/mL) to 32000 mM (≈ 54900 mg/mL) (2-fold).

Going from `CC[C@H](C)[C@H](NC(=O)[C@H](CCCCN)NC(=O)[C@@H](NC(=O)[C@H](Cc1c[nH]c2ccccc12)NC(=O)[C@H](CCCCN)NC(=O)[C@@H](N)CCCCN)[C@@H](C)O)C(=O)N[C@@H](Cc1ccc(O)cc1)C(=O)N[C@@H](CO)C(=O)N1CCC[C@H]1C(=O)N[C@@H](CC(C)C)C(=O)N[C@@H](CO)C(=O)N[C@@H](CC(C)C)C(=O)O` [Smilodin-1] (H-KKWTKIYSPLSL-OH) to `CC[C@H](C)[C@H](NC(=O)[C@@H](N)[C@@H](C)O)C(=O)N[C@@H](CCCCN)C(=O)N[C@@H](CC(C)C)C(=O)N[C@@H](Cc1ccccc1)C(=O)N[C@@H](CC(C)C)C(=O)N[C@@H](CO)C(=O)N[C@@H](Cc1ccccc1)C(=O)N[C@@H](CCCCN)C(=O)N[C@@H](CC(C)C)C(=O)O` [Xenothrixin-1] (H-TIKLFLSFKL-OH), the “MIC” value falls from 64000 mM (≈ 93700 mg/mL) to 8000 mM (≈ 9680 mg/mL) (8-fold).

Going from `CC[C@H](C)[C@H](NC(=O)[C@H](CCCCN)NC(=O)[C@H](CC(C)C)NC(=O)[C@H](CCC(N)=O)NC(=O)[C@H](Cc1ccccc1)NC(=O)[C@@H](NC(=O)[C@@H](NC(=O)[C@H](Cc1ccccc1)NC(=O)[C@H](CC(C)C)NC(=O)[C@@H](NC(=O)[C@@H](N)CC(C)C)[C@@H](C)O)[C@@H](C)CC)[C@@H](C)CC)C(=O)N[C@@H](CO)C(=O)N[C@@H](CCCCN)C(=O)N[C@@H](CC(C)C)C(=O)O` [Paleopropin-1] (H-LTLFIIFQLKISKL-OH) to `CC[C@H](C)[C@H](N)C(=O)N[C@@H](Cc1ccccc1)C(=O)N[C@@H](CC(C)C)C(=O)N[C@@H](Cc1c[nH]cn1)C(=O)N[C@@H](CC(C)C)C(=O)N[C@@H](CCCCN)C(=O)N[C@H](C(=O)N[C@@H](CC(C)C)C(=O)N[C@@H](CCCCN)C(=O)N[C@H](C(=O)N[C@H](C(=O)N[C@@H](Cc1c[nH]cn1)C(=O)N[C@@H](CC(C)C)C(=O)N[C@@H](CC(C)C)C(=O)O)[C@@H](C)CC)[C@@H](C)CC)[C@@H](C)O` [Mammuthusin-1] (H-IFLHLKTLKIIHLL-OH), the “MIC” value falls from 32000 mM (≈ 53700 mg/mL) to 4000 mM (≈ 6810 mg/mL) (8-fold).

Going from `CC[C@H](C)[C@H](NC(=O)[C@H](Cc1c[nH]cn1)NC(=O)[C@@H](N)CC(C)C)C(=O)NCC(=O)N[C@@H](CC(C)C)C(=O)N[C@H](C(=O)N[C@@H](CCCCN)C(=O)N[C@H](C(=O)N[C@@H](Cc1ccc(O)cc1)C(=O)N[C@@H](CC(C)C)C(=O)NCC(=O)N[C@@H](CO)C(=O)N[C@@H](Cc1ccccc1)C(=O)N[C@@H](C)C(=O)N[C@@H](CC(C)C)C(=O)O)[C@@H](C)O)[C@@H](C)CC` [Eudyptin-1] (H-LHIGLIKTYLGSFAL-OH) to `CC[C@H](C)[C@H](NC(=O)[C@H](CCCCN)NC(=O)[C@H](CO)NC(=O)[C@H](CC(N)=O)NC(=O)[C@H](Cc1ccccc1)NC(=O)[C@H](Cc1c[nH]cn1)NC(=O)[C@H](Cc1ccccc1)NC(=O)[C@@H](N)Cc1c[nH]c2ccccc12)C(=O)N[C@@H](CC(C)C)C(=O)N[C@@H](CC(C)C)C(=O)N[C@@H](CC(C)C)C(=O)N[C@H](C(=O)NCC(=O)N[C@@H](CC(C)C)C(=O)O)[C@@H](C)O` [Mylodonin-1] (H-WFHFNSKILLLTGL-OH), the “MIC” value falls from 64000 mM (≈ 105000 mg/mL) to 8000 mM (≈ 13500 mg/mL) (8-fold).

First: CC[C@H](C)[C@H](NC(=O)[C@H](CCCCN)NC(=O)[C@@H](N)CCCNC(=N)N)C(=O)N[C@@H](CC(C)C)C(=O)NCC(=O)N[C@@H](CC(=O)O)C(=O)N[C@@H](CC(C)C)C(=O)N[C@@H](CCCCN)C(=O)N[C@@H](Cc1ccccc1)C(=O)N[C@@H](CC(C)C)C(=O)N[C@@H](CCC(=O)O)C(=O)N[C@@H](CO)C(=O)N[C@@H](CC(C)C)C(=O)N[C@@H](CCCCN)C(=O)N[C@H](C(=O)N[C@@H](Cc1ccc(O)cc1)C(=O)O)[C@@H](C)O [Anomalopterin-1] (H-RKILGDLKFLESLKTY-OH)
Second: CC[C@H](C)[C@H](NC(=O)[C@H](CCCCN)NC(=O)[C@H](CC(C)C)NC(=O)[C@@H](NC(=O)[C@@H](N)CCCCN)[C@@H](C)O)C(=O)N[C@H](C(=O)N[C@@H](CCCNC(=N)N)C(=O)N[C@@H](CC(C)C)C(=O)N[C@@H](CC(C)C)C(=O)N[C@@H](Cc1ccccc1)C(=O)O)[C@@H](C)CC [Mammuthusin-3] (H-KTLKIIRLLF-OH)
The “MIC” value of the first is 4-fold higher: 64000 mM (≈ 123000 mg/mL) for the first, 16000 mM (≈ 19900 mg/mL) for the second.

Going from `CC[C@H](C)[C@H](NC(=O)[C@H](CC(C)C)NC(=O)[C@H](Cc1c[nH]cn1)NC(=O)[C@@H](NC(=O)[C@H](CC(C)C)NC(=O)[C@H](CC(C)C)NC(=O)[C@H](Cc1c[nH]cn1)NC(=O)CN)[C@@H](C)CC)C(=O)NCC(=O)N[C@@H](CCCCN)C(=O)N[C@@H](C)C(=O)N[C@H](C(=O)N[C@@H](CC(C)C)C(=O)N[C@@H](C)C(=O)N[C@@H](CC(C)C)C(=O)O)[C@@H](C)O` [Arctoterin-1] (H-GHLLIHLIGKATLAL-OH) to `CC[C@H](C)[C@H](NC(=O)[C@H](CCCCN)NC(=O)[C@H](CC(C)C)NC(=O)[C@H](Cc1c[nH]cn1)NC(=O)[C@@H](N)CC(C)C)C(=O)N[C@@H](CC(C)C)C(=O)N[C@@H](CCCCN)C(=O)N[C@H](C(=O)N[C@H](C(=O)N[C@@H](CCCNC(=N)N)C(=O)N[C@@H](CC(C)C)C(=O)N[C@@H](CC(C)C)C(=O)O)[C@@H](C)CC)[C@@H](C)CC` [Elephasin-1] (H-LHLKILKIIRLL-OH), the “MIC” value falls from 64000 mM (≈ 100000 mg/mL) to 4000 mM (≈ 5890 mg/mL) (16-fold).

In the case of `CC[C@H](C)[C@H](NC(=O)[C@H](Cc1ccc(O)cc1)NC(=O)[C@H](C)NC(=O)[C@@H](N)CCCNC(=N)N)C(=O)N[C@@H](CS)C(=O)N[C@@H](CCCNC(=N)N)C(=O)N[C@@H](CCCCN)C(=O)N[C@@H](CCCCN)C(=O)N[C@@H](Cc1ccccc1)C(=O)N[C@@H](CC(C)C)C(=O)N[C@@H](CO)C(=O)N[C@@H](CC(C)C)C(=O)N[C@@H](CCCNC(=N)N)C(=O)N[C@@H](CCCCN)C(=O)N[C@@H](C)C(=O)N[C@@H](CO)C(=O)N[C@H](C(=O)N[C@@H](CCCCN)C(=O)N[C@@H](CC(C)C)C(=O)N[C@@H](CCC(N)=O)C(=O)N[C@@H](CO)C(=O)N[C@@H](CC(C)C)C(=O)N[C@H](C(=O)N[C@@H](CCCNC(=N)N)C(=O)N[C@@H](CCSC)C(=O)N[C@@H](CCCCN)C(=O)O)C(C)C)[C@@H](C)CC` [Equusin-2] (H-RAYICRKKFLSLRKASIKLQSLVRMK-OH), the “MIC” value was 8000 mM (≈ 25100 mg/mL).
